Test results from patent publication EP0214009A2, “Enaminones as potential prodrugs of primary and secondary amines” (priority 1985, dated 1987).
Where two headings read alike, the source gives them in different places.

Columns and labels:
[1] = Chemical hydrolysis in isotonic Sorensen phosphate buffer, followed spectrophotometrically; type: physicochemical; conditions: pH 7.4, 25°C, no enzyme, read-out: apparent half lives for chemical hydrolysis
[2] = Hydrolysis in the presence of porcine liver esterase (half-lives, Michaelis-Menten parameters from Lineweaver Burk plots); type: in vitro ADME; conditions: pig; 60 × 10⁻⁴ units/ml porcine liver esterase, initial substrate concentration 16 µM, pH 7.4, 25°C; read-out: apparent half lives in the presence of porcine liver esterase
[3] = system: Porcine liver esterase; test: as above; type: in vitro ADME
[4] = Hydrolysis in the presence of rat plasma; type: in vitro ADME
[5] = Hydrolysis in the presence of human plasma; type: in vitro ADME
[6] = Hydrolysis in the presence of rat liver homogenates; type: in vitro ADME
[7] = Hydrolysis in the presence of rat intestinal homogenates; type: in vitro ADME
[8] = system: carbonic anhydrase; test: Hydrolysis in the presence of carbonic anhydrase; type: in vitro ADME

CCOC(=O)C1=C(Nc2ccccc2)CCCC1 [Example 2, Ethyl 2-(N-phenylamino)-l-cyclohexene-l-carboxylate]
half-life [1]: 18 min
half-life at 16 µM [2]: 10 min
Km ([3]; average over the three enzyme concentrations, read-out: Average Km): 7.2 mM
Vmax ± S.D. ([3]; enzyme concentration 16.7 (Units/ml x 10^4)): 45.5 ± 3 mM/h
Km ([3]; enzyme concentration 16.7 (Units/ml x 10^4), read-out: Km ± S.D.): 11.2 ± 0.1 mM
Vmax ± S.D. ([3]; enzyme concentration 32.4 (Units/ml x 10^4)): 56.8 ± 8 mM/h
Km ([3]; enzyme concentration 32.4 (Units/ml x 10^4), read-out: Km ± S.D.): 5.3 ± 0.2 mM
Vmax ± S.D. ([3]; enzyme concentration 61.2 (Units/ml x 10^4)): 95.2 ± 10 mM/h
Km ([3]; enzyme concentration 61.2 (Units/ml x 10^4), read-out: Km ± S.D.): 5.2 ± 0.2 mM
Catalysis of the hydrolysis [4]: not observed
Catalysis of the hydrolysis [5]: not observed
Catalysis of the hydrolysis [6]: not observed
Catalysis of the hydrolysis [7]: not observed
Catalysis of the hydrolysis [8]: not observed
